From ChEMBL document CHEMBL1201862, “PubChem BioAssay data set” (2004)
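Five compound concentrations were applied to cells in 96-well plates for 48 hours; endpoints were derived by simple linear interpolation of the resulting dose-response curve. GI50 = concentration required for 50% inhibition of growth.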 The source made the active and inactive calls. Cut-off read from the data, not from the text of the source: active = GI50 up to about 1.1 µM and inactive = higher.

Legend:
Assay in all cases: NCI tumour cell line growth inhibition, 48 h
[1] = test system: MDA-MB-435
[2] = test system: HCT-15
[3] = test system: HT-29
[4] = test system: SN12C
[5] = test system: Hs-578T
[6] = test system: SK-MEL-28
[7] = test system: SK-MEL-2
[8] = test system: HL-60
[9] = test system: SK-MEL-5
[10] = test system: SR
[11] = test system: CCRF-CEM
[12] = test system: UO-31
[13] = test system: SW-620
[14] = test system: HOP-92
[15] = test system: MDA-N
[16] = test system: ACHN
[17] = test system: OVCAR-8
[18] = test system: MOLT-4
[19] = test system: CAKI-1
[20] = test system: NCI-H226
[21] = test system: SF-539
[22] = test system: M14
[23] = test system: IGROV-1
[24] = test system: NCI-H522
[25] = test system: SNB-75
[26] = test system: RXF 393
[27] = test system: SNB-19
[28] = test system: NCI-H23
[29] = test system: OVCAR-3
[30] = test system: BT-549
[31] = test system: COLO 205
[32] = test system: SF-295
[33] = test system: HCT-116
[34] = test system: A498
[35] = test system: MCF7
[36] = test system: K562
[37] = test system: UACC-62
[38] = test system: TK-10
[39] = test system: A549
[40] = test system: NCI/ADR-RES
[41] = test system: OVCAR-5
[42] = test system: PC-3
[43] = test system: NCI-H460
[44] = test system: HCC 2998
[45] = test system: T47D
[46] = test system: MDA-MB-231
[47] = test system: Malme-3M
[48] = test system: LOX IMVI
[49] = test system: U-251
[50] = test system: KM12
[51] = test system: UACC-257
[52] = test system: OVCAR-4
[53] = test system: DU-145
[54] = test system: RPMI-8226
[55] = test system: SF-268
[56] = test system: 786-0
[57] = test system: SK-OV-3
[58] = test system: EKVX
[59] = test system: HOP-62

**Q.** What does the source list for `C=CC[C@@]1(OC(C)=O)C(=O)C(=O)OC1C1COC(C)(C)O1` (stereo partly drawn)?
**A.** GI50 [1]: 16.8 µM (inactive); GI50 [2]: 15 µM; GI50 [3]: 19.3 µM (inactive); GI50 [4]: 17.6 µM (inactive); GI50 [5]: 31 µM (inactive); GI50 [6]: 18.8 µM (inactive); GI50 [7]: 21.6 µM (inactive); GI50 [8]: 10.8 µM (inactive); GI50 [9]: 16.6 µM (inactive); GI50 [10]: 15.2 µM (inactive); GI50 [11]: 6.04 µM (inactive); GI50 [12]: 17.6 µM (inactive); GI50 [13]: 11.9 µM (inactive); GI50 [14]: 14.6 µM (inactive); GI50 [15]: 16.5 µM (inactive); GI50 [16]: 16.6 µM (inactive); GI50 [17]: 20.1 µM (inactive); GI50 [18]: 14.3 µM (inactive); GI50 [19]: 2.08 µM (inactive); GI50 [20]: 35.3 µM (inactive); GI50 [21]: 25.1 µM (inactive); GI50 [22]: 15.7 µM (inactive); GI50 [23]: 18.6 µM (inactive); GI50 [24]: 6.12 µM (inactive); GI50 [25]: 31.8 µM (inactive); GI50 [26]: 16.3 µM (inactive); GI50 [27]: 70.5 µM (inactive); GI50 [28]: 20.3 µM (inactive); GI50 [29]: 17.1 µM (inactive); GI50 [30]: 21.1 µM (inactive); GI50 [31]: 12.9 µM (inactive); GI50 [32]: 32.4 µM (inactive); GI50 [33]: 13.1 µM (inactive); GI50 [34]: 21.9 µM (inactive); GI50 [35]: 17.3 µM (inactive); GI50 [36]: 15.3 µM (inactive); GI50 [37]: 16.5 µM (inactive); GI50 [38]: 16.3 µM (inactive); GI50 [39]: 24.1 µM (inactive); GI50 [40]: 25.3 µM (inactive); GI50 [41]: 19.8 µM (inactive); GI50 [42]: 20.4 µM (inactive); GI50 [43]: 17.9 µM (inactive); GI50 [44]: 20.7 µM (inactive); GI50 [45]: 16 µM (inactive); GI50 [46]: 15.8 µM (inactive); GI50 [47]: 17.2 µM (inactive); GI50 [48]: 6.17 µM (inactive); GI50 [49]: 16.9 µM (inactive); GI50 [50]: 15.7 µM (inactive); GI50 [51]: 16.3 µM (inactive); GI50 [52]: 18.6 µM (inactive); GI50 [53]: 24.2 µM (inactive); GI50 [54]: 12.4 µM (inactive); GI50 [55]: 19.5 µM (inactive); GI50 [56]: 11.7 µM (inactive); GI50 [57]: 42.5 µM (inactive); GI50 [58]: 16.4 µM (inactive); GI50 [59]: 49.4 µM (inactive)

**Q.** With `CNC(=O)C(C)NC(=O)C(Cc1ccccc1)NC(=O)c1ccccc1` (stereo not drawn) as the compound, how does the GI50 [1] read?
**A.** > 100 µM (inactive)

**Q.** What about the GI50 [2] of the same compound?
**A.** > 100 µM

**Q.** What about the GI50 [3] of the same compound?
**A.** > 100 µM (inactive)

**Q.** What about the GI50 [4] of the same compound?
**A.** > 100 µM (inactive)

**Q.** And the GI50 [5]?
**A.** > 100 µM (inactive)

**Q.** And the GI50 [6]?
**A.** > 100 µM (inactive)

**Q.** What about the GI50 [7] of the same compound?
**A.** > 100 µM (inactive)

**Q.** What about the GI50 [8] of the same compound?
**A.** > 100 µM (inactive)

**Q.** And the GI50 [9]?
**A.** > 100 µM (inactive)

**Q.** What about the GI50 [10] of the same compound?
**A.** > 100 µM (inactive)

**Q.** And the GI50 [11]?
**A.** > 100 µM (inactive)

**Q.** And the GI50 [12]?
**A.** > 100 µM (inactive)

**Q.** What about the GI50 [13] of the same compound?
**A.** > 100 µM (inactive)

**Q.** What about the GI50 [14] of the same compound?
**A.** > 100 µM (inactive)

**Q.** What about the GI50 [15] of the same compound?
**A.** > 100 µM (inactive)

**Q.** What about the GI50 [16] of the same compound?
**A.** > 100 µM (inactive)

**Q.** What about the GI50 [17] of the same compound?
**A.** > 100 µM (inactive)

**Q.** And the GI50 [18]?
**A.** > 100 µM (inactive)

**Q.** What about the GI50 [19] of the same compound?
**A.** > 100 µM (inactive)

**Q.** What about the GI50 [20] of the same compound?
**A.** > 100 µM (inactive)

**Q.** And the GI50 [21]?
**A.** > 100 µM (inactive)

**Q.** And the GI50 [22]?
**A.** > 100 µM (inactive)

**Q.** And the GI50 [23]?
**A.** > 100 µM (inactive)

**Q.** And the GI50 [24]?
**A.** > 100 µM (inactive)

**Q.** What about the GI50 [25] of the same compound?
**A.** > 100 µM (inactive)

**Q.** And the GI50 [26]?
**A.** > 100 µM (inactive)

**Q.** What about the GI50 [27] of the same compound?
**A.** > 100 µM (inactive)

**Q.** And the GI50 [28]?
**A.** > 100 µM (inactive)

**Q.** And the GI50 [29]?
**A.** > 100 µM (inactive)

**Q.** And the GI50 [30]?
**A.** > 100 µM (inactive)

**Q.** And the GI50 [31]?
**A.** > 100 µM (inactive)

**Q.** And the GI50 [32]?
**A.** > 100 µM (inactive)

**Q.** And the GI50 [33]?
**A.** > 100 µM (inactive)

**Q.** And the GI50 [34]?
**A.** > 100 µM (inactive)

**Q.** And the GI50 [35]?
**A.** > 100 µM (inactive)

**Q.** What about the GI50 [36] of the same compound?
**A.** > 100 µM (inactive)

**Q.** What about the GI50 [37] of the same compound?
**A.** > 100 µM (inactive)

**Q.** And the GI50 [38]?
**A.** > 100 µM (inactive)

**Q.** And the GI50 [39]?
**A.** > 100 µM (inactive)

**Q.** What about the GI50 [40] of the same compound?
**A.** > 100 µM (inactive)

**Q.** What about the GI50 [41] of the same compound?
**A.** > 100 µM (inactive)

**Q.** And the GI50 [42]?
**A.** > 100 µM (inactive)

**Q.** And the GI50 [43]?
**A.** > 100 µM (inactive)

**Q.** And the GI50 [44]?
**A.** > 100 µM (inactive)

**Q.** And the GI50 [45]?
**A.** > 100 µM (inactive)

**Q.** What about the GI50 [46] of the same compound?
**A.** > 100 µM (inactive)

**Q.** And the GI50 [47]?
**A.** > 100 µM (inactive)

**Q.** What about the GI50 [48] of the same compound?
**A.** > 100 µM (inactive)

**Q.** What about the GI50 [49] of the same compound?
**A.** > 100 µM (inactive)

**Q.** And the GI50 [50]?
**A.** > 100 µM (inactive)

**Q.** And the GI50 [51]?
**A.** > 100 µM (inactive)

**Q.** What about the GI50 [52] of the same compound?
**A.** > 100 µM (inactive)

**Q.** And the GI50 [53]?
**A.** > 100 µM (inactive)

**Q.** And the GI50 [54]?
**A.** > 100 µM (inactive)

**Q.** What about the GI50 [55] of the same compound?
**A.** > 100 µM (inactive)

**Q.** And the GI50 [56]?
**A.** > 100 µM (inactive)

**Q.** What about the GI50 [57] of the same compound?
**A.** > 100 µM (inactive)

**Q.** What about the GI50 [58] of the same compound?
**A.** > 100 µM (inactive)

**Q.** What about the GI50 [59] of the same compound?
**A.** > 100 µM (inactive)
